What all share (assay type): cell-based
Common to all, as to design: unit not given here

In test [1] the test system is K. pneumoniae ATCC10031. Briefly: MIC by CLSI agar/broth dilution, Test Example 1. To be noted: Table 2. As to the method:
(§1) The MIC (minimum inhibitory concentration) was determined by the CLSI (Clinical and Laboratory Standards Institute) methods. The agar dilution method for determining antimicrobial susceptibility was carried out using Mueller Hinton-II agar and the amount of inoculation was 10^4 CFU/spot. Broth dilution tests were performed using Mueller Hinton-II broth. All assays were run with the indicated control strains, available from the ATCC (American Type Culture Collection, Rockville, Md.).

The subject of test [2] is P. aeruginosa ATCC27853. Briefly: MIC by CLSI agar/broth dilution, Test Example 1. Conditions: Table 2. As to the method:
as §1
(Dilution methods test growth across graded concentrations, often in twofold steps.)

The test system of test [3] is E. coli ATCC10536. As to the kind of experiment: MIC by CLSI agar/broth dilution, Test Example 1. Conditions: Table 2. As to the method: as §1
Test [4] deals with A. baumannii KABA 01-33. Briefly: MIC by CLSI agar/broth dilution, Test Example 1. To be noted: Table 2; strain produces OXA-2, VIM-2. As to the method: as §1
Test [5] concerns A. baumannii 4010. As to the kind of experiment: MIC by CLSI agar/broth dilution, Test Example 1. Conditions: Table 2; strain produces OXA-51. As to the method:
as §1

Test [6] has as its system A. baumannii FSAb-141. Briefly: Antimicrobial Susceptibility Test (CLSI), Test Example 3. Conditions: Table 6; strain produces PER-1, OXA-23, 51, 66. As to the method:
(§2) Antimicrobial Susceptibility Test was performed by the CLSI (Clinical and Laboratory Standards Institute) methods. The agar dilution method for determining antimicrobial susceptibility was carried out using Mueller Hinton-II agar and the amount of inoculation was 10^4CFU/spot. Broth dilution tests were performed using the Mueller Hinton-II broth. All assays were run with the indicated control strains, available from the ATCC (American Type Culture Collection, Rockville, Md.).

In test [7] the test system is A. baumannii FSAb-039. The description is as above. Conditions: Table 6; strain produces OXA-51. As to the method:
as §2

In test [8] the test system is P. aeruginosa FSPa-141. The description is as above. Conditions: Table 6; strain produces VIM-2. As to the method:
as §2

The subject of test [9] is E. coli FSEco-054. The test is described as above. Conditions: Table 6; strain produces ESBL. As to the method: as §2
The subject of test [10] is K. pneumoniae BAA-1904. The description is as above. To be noted: Table 6; strain produces KPC-3. As to the method: as §2
The test system of test [11] is A. baumannii FSAb-056. The test is described as above. To be noted: Table 6; strain produces OXA-23, 51. As to the method: as §2
For test [12], the system named is P. aeruginosa FSPa-102. The description is as above. To be noted: Table 6; strain produces IMP-1. As to the method: as §2
For test [13], the system named is A. baumannii FSAb-029. Described as above. Conditions: Table 6; strain produces OXA-2, IMP-1. As to the method: as §2

With `C[C@@H](O)[C@H]1C(=O)N2C(C(=O)O)=C(CN(C)CCNC(=O)c3ccc(O)c(O)c3)[C@H](C)[C@H]12` [Compound 8], in test [1], the “MIC (minimum inhibitory concentration), K. pneumoniae ATCC10031” value turned out to be 0.5. The “MIC (minimum inhibitory concentration), P. aeruginosa ATCC27853” value in [2] is given as >32. In test [3], the “MIC (minimum inhibitory concentration), E. coil ATCC10536” value is on record as 1. For the same compound, the “MIC (minimum inhibitory concentration), A. baumannii KABA 01-33” value in test [4] is on record as 4. The “MIC (minimum inhibitory concentration), A. baumannii 4010” value in test [5] is 8.

Take `COc1ccc(C(=O)NCCN(C)CC2=C(C(=O)O)N3C(=O)[C@H]([C@@H](C)O)[C@H]3[C@H]2C)c(Cl)c1OC` [Compound 15]: the “MIC (minimum inhibitory concentration), K. pneumoniae ATCC10031” value in test [1] is 1. The “MIC (minimum inhibitory concentration), P. aeruginosa ATCC27853” value in [2] is reported as >32. Further, in [3], the “MIC (minimum inhibitory concentration), E. coil ATCC10536” value is listed as 32. In addition, the “MIC (minimum inhibitory concentration), A. baumannii KABA 01-33” value in test [4] is >32. Besides, the “MIC (minimum inhibitory concentration), A. baumannii 4010” value in [5] is >32.

On to `C[C@@H](O)[C@H]1C(=O)N2C(C(=O)O)=C(CN(C)CC(=O)NCCNC(=O)c3ccc(O)c(O)c3)[C@H](C)[C@H]12` [Compound 20], for which the “MIC (minimum inhibitory concentration), K. pneumoniae ATCC10031” value in [1] is recorded as 0.25. The “MIC (minimum inhibitory concentration), P. aeruginosa ATCC27853” value in [2] turned out to be 16. In addition, in [3], the “MIC (minimum inhibitory concentration), E. coil ATCC10536” value turned out to be 0.5. In addition, in test [4], the “MIC (minimum inhibitory concentration), A. baumannii KABA 01-33” value was found to be 4. The “MIC (minimum inhibitory concentration), A. baumannii 4010” value in [5] stood at 16.

In the case of `C[C@@H](O)[C@H]1C(=O)N2C(C(=O)O)=C(CN(CCCCNC(=O)c3ccc(O)c(O)c3)CCCNC(=O)c3ccc(O)c(O)c3)[C@H](C)[C@H]12` [Compound 111], in [6], the “antimicrobial susceptibility, Ab FSAb-141” value is 2. Moreover, the “antimicrobial susceptibility, Ab FSAb-039” value in test [7] came to 4. Further, in test [8], the “antimicrobial susceptibility, Pa FSPa-141” value is 16. Moreover, the “antimicrobial susceptibility, Ec FSEco-054” value in [9] is listed as 4. Also, in [10], the “antimicrobial susceptibility, Kp BAA-1904” value is recorded as >32. In addition, the “antimicrobial susceptibility, Ab FSAb-056” value in test [11] amounted to 8. Besides, in test [12], the “antimicrobial susceptibility, Pa FSPa-102” value was found to be 4. Further, the “antimicrobial susceptibility, Ab FSAb-029” value in test [13] turned out to be 2.

In the case of `C[C@@H](O)[C@H]1C(=O)N2C(C(=O)O)=C(CN(CCCNC(=O)c3cccc(O)c3O)CCNC(=O)c3cccc(O)c3O)[C@H](C)[C@H]12` [Compound 112], in [6], the “antimicrobial susceptibility, Ab FSAb-141” value was found to be 4. Further, in test [7], the “antimicrobial susceptibility, Ab FSAb-039” value worked out at 8. Besides, the “antimicrobial susceptibility, Pa FSPa-141” value in test [8] was >32. For the same compound, the “antimicrobial susceptibility, Ec FSEco-054” value in test [9] came to 8. Further, the “antimicrobial susceptibility, Kp BAA-1904” value in test [10] was >32. For the same compound, the “antimicrobial susceptibility, Ab FSAb-056” value in test [11] is 32. For the same compound, the “antimicrobial susceptibility, Pa FSPa-102” value in test [12] was 16. For the same compound, the “antimicrobial susceptibility, Ab FSAb-029” value in [13] is reported as 4.

`C[C@@H](O)[C@H]1C(=O)N2C(C(=O)O)=C(CN(CCCCNC(=O)c3cccc(O)c3O)CCCNC(=O)c3cccc(O)c3O)[C@H](C)[C@H]12` [Compound 113]: the “antimicrobial susceptibility, Ab FSAb-141” value in test [6] was >32. Moreover, the “antimicrobial susceptibility, Ab FSAb-039” value in [7] is listed as >32. Also, the “antimicrobial susceptibility, Pa FSPa-141” value in test [8] is given as >32. In addition, the “antimicrobial susceptibility, Ec FSEco-054” value in test [9] was >32. Moreover, the “antimicrobial susceptibility, Kp BAA-1904” value in test [10] is >32. Further, the “antimicrobial susceptibility, Ab FSAb-056” value in test [11] is recorded as >32. Besides, the “antimicrobial susceptibility, Pa FSPa-102” value in test [12] is given as >32. In addition, the “antimicrobial susceptibility, Ab FSAb-029” value in [13] is listed as >32.

In the case of `C[C@@H](O)[C@H]1C(=O)N2C(C(=O)[O-])=C(C[N+](C)(CCCNC(=O)c3ccc(O)c(O)c3F)CCCNC(=O)c3ccc(O)c(O)c3F)[C@H](C)[C@H]12` [Compound 114], in test [6], the “antimicrobial susceptibility, Ab FSAb-141” value was 2. Also, the “antimicrobial susceptibility, Ab FSAb-039” value in test [7] is 32. In test [8], the “antimicrobial susceptibility, Pa FSPa-141” value is 4. The “antimicrobial susceptibility, Ec FSEco-054” value in test [9] was found to be 2. Also, the “antimicrobial susceptibility, Kp BAA-1904” value in test [10] is listed as >32. Also, the “antimicrobial susceptibility, Ab FSAb-056” value in test [11] is 8. Also, in test [12], the “antimicrobial susceptibility, Pa FSPa-102” value amounted to 4. Also, in test [13], the “antimicrobial susceptibility, Ab FSAb-029” value is 1.

`C[C@@H](O)[C@H]1C(=O)N2C(C(=O)O)=C(CN(C)CC(=O)N(CCCNC(=O)c3ccc(O)c(O)c3F)CCCNC(=O)c3ccc(O)c(O)c3F)[C@H](C)[C@H]12` [Compound 115]: the “antimicrobial susceptibility, Ab FSAb-141” value in [6] worked out at 2. Also, the “antimicrobial susceptibility, Ab FSAb-039” value in test [7] came to 4. Besides, in test [8], the “antimicrobial susceptibility, Pa FSPa-141” value came to 4. The “antimicrobial susceptibility, Ec FSEco-054” value in test [9] stood at 2. The “antimicrobial susceptibility, Kp BAA-1904” value in test [10] is >32. Besides, the “antimicrobial susceptibility, Ab FSAb-056” value in test [11] is recorded as 8. Also, in test [12], the “antimicrobial susceptibility, Pa FSPa-102” value stood at 2. Besides, in test [13], the “antimicrobial susceptibility, Ab FSAb-029” value was found to be 2.

For `C[C@@H](O)[C@H]1C(=O)N2C(C(=O)O)=C(CN(C)CC(=O)N(CCCNC(=O)c3ccc(O)c(O)c3F)CCCNC(=O)c3ccc(O)c(O)c3F)[C@H](C)[C@H]12` [Compound 117], the “antimicrobial susceptibility, Ab FSAb-141” value in test [6] stood at 2. Further, the “antimicrobial susceptibility, Ab FSAb-039” value in test [7] was 4. For the same compound, in [8], the “antimicrobial susceptibility, Pa FSPa-141” value is listed as 8. In test [9], the “antimicrobial susceptibility, Ec FSEco-054” value is reported as 1. Moreover, the “antimicrobial susceptibility, Kp BAA-1904” value in test [10] is listed as >32. For the same compound, the “antimicrobial susceptibility, Ab FSAb-056” value in test [11] was found to be 4. Further, the “antimicrobial susceptibility, Pa FSPa-102” value in test [12] stood at 2. Also, the “antimicrobial susceptibility, Ab FSAb-029” value in test [13] stood at 2.

For `C[C@@H](O)[C@H]1C(=O)N2C(C(=O)[O-])=C(CN(C)CC[N+](C)(CCCNC(=O)c3ccc(O)c(O)c3F)CCCNC(=O)c3ccc(O)c(O)c3F)[C@H](C)[C@H]12` [Compound 118], in test [6], the “antimicrobial susceptibility, Ab FSAb-141” value came out at 4. In addition, in test [7], the “antimicrobial susceptibility, Ab FSAb-039” value worked out at 8. The “antimicrobial susceptibility, Pa FSPa-141” value in test [8] is 8. In addition, the “antimicrobial susceptibility, Ec FSEco-054” value in test [9] is 2. For the same compound, in test [10], the “antimicrobial susceptibility, Kp BAA-1904” value is reported as >32. Moreover, the “antimicrobial susceptibility, Ab FSAb-056” value in [11] is 8. In addition, the “antimicrobial susceptibility, Pa FSPa-102” value in test [12] was 4. Further, in test [13], the “antimicrobial susceptibility, Ab FSAb-029” value is on record as 2.

With `COc1ccc(C(=O)NCCCN(CCCNC(=O)c2ccc(O)c(O)c2F)CC2=C(C(=O)O)N3C(=O)[C@H]([C@@H](C)O)[C@H]3[C@H]2C)c(F)c1OC` [Compound 119], in test [6], the “antimicrobial susceptibility, Ab FSAb-141” value is given as 8. In addition, in test [7], the “antimicrobial susceptibility, Ab FSAb-039” value is recorded as 8. The “antimicrobial susceptibility, Pa FSPa-141” value in test [8] is given as >32. Further, the “antimicrobial susceptibility, Ec FSEco-054” value in [9] is recorded as 16. Also, the “antimicrobial susceptibility, Kp BAA-1904” value in [10] is on record as >32. Besides, the “antimicrobial susceptibility, Ab FSAb-056” value in test [11] is 8. For the same compound, in [12], the “antimicrobial susceptibility, Pa FSPa-102” value is given as >32. Besides, in test [13], the “antimicrobial susceptibility, Ab FSAb-029” value came out at 4.

As to `COc1ccc(C(=O)NCCCN(CCCNC(=O)c2ccc(OC)c(OC)c2F)CC2=C(C(=O)O)N3C(=O)[C@H]([C@@H](C)O)[C@H]3[C@H]2C)c(F)c1OC` [Compound 120], the “antimicrobial susceptibility, Ab FSAb-141” value in [6] was >32. For the same compound, the “antimicrobial susceptibility, Ab FSAb-039” value in test [7] was >32. Further, in test [8], the “antimicrobial susceptibility, Pa FSPa-141” value was >32. In addition, in [9], the “antimicrobial susceptibility, Ec FSEco-054” value was >32. Also, the “antimicrobial susceptibility, Kp BAA-1904” value in test [10] is given as >32. In addition, in test [11], the “antimicrobial susceptibility, Ab FSAb-056” value is given as >32. Also, in [12], the “antimicrobial susceptibility, Pa FSPa-102” value was >32. Besides, the “antimicrobial susceptibility, Ab FSAb-029” value in test [13] is on record as >32.
